Series [1] deals with T1, Replicase polyprotein 1ab (Severe acute respiratory syndrome coronavirus 2, UniProt P0DTD1). Kind of series: Inhibition of full length SARS CoV-2 main protease expressed in Escherichia coli BL21 (DE3) expression system using Mca-AVLQSGFR-K(Dnp)K as substrate by fluorescence method.
The target in series [2] is T1, Replicase polyprotein 1ab. As to the kind of experiment: Inhibition of SARS CoV-2 main protease.
Series [3] has as its target T1, Replicase polyprotein 1ab. Kind of series: Inhibition of recombinant his tagged SARS CoV-2 main protease expressed in Escherichia coli BL21 assessed as inhibition constant using Boc-Abu-Tle-Leu-Gln-AMC37 as fluorogenic substrate pre-incubated for 5 mins followed by substrate addition measured after 60 mins by FRET based assay.
The target in series [4] is T1, Replicase polyprotein 1ab. Kind of series: Inhibition of recombinant his tagged SARS CoV-2 main protease expressed in Escherichia coli BL21 using Boc-Abu-Tle-Leu-Gln-AMC37 as fluorogenic substrate pre-incubated for 5 mins followed by substrate addition measured after 60 mins by FRET based assay.
Series [5] is described as follows: Stability of the compound assessed as glutathione reactivity by measuring reduction at pH 7.4 by HPLC/MS method. Type of series: physicochemical. As to conditions: buffer.
Series [6] has as its target Replicase polyprotein 1ab (Severe acute respiratory syndrome coronavirus 2) (UniProt P0DTD1). Kind of series: Time dependent inhibition of recombinant his tagged SARS CoV-2 main protease expressed in Escherichia coli BL21 assessed as ratio of Kinact/Ki using MCA-AVLQSGFR-K(DNP)-K-NH2 as substrate pre-incubated for 5 mins followed by substrate addition measured after 60 mins by FRET based assay.

Take `O=C(NCCN1C(=O)C=CC1=O)c1cc2ccccc2[nH]1`: the IC50 (usually the concentration at which inhibition is half-maximal) in series [1] worked out at 2080 nM.
`S=C(SSC(=S)N1CCOCC1)N1CCOCC1`: inhibition in series [2] was half-maximal at 4030 nM (IC50).
Regarding `Oc1ccc2ccccc2c1SSc1c(O)ccc2ccccc12`, in series [1], the IC50 was determined as 2350 nM.
`O=C(Sc1nc2ccccc2s1)c1ccc2ccccc2n1`: the Ki (commonly the dissociation constant of the complex between target and ligand, obtained from inhibition or displacement) in series [3] turned out to be 51 nM. In addition, the IC50 in series [4] came to 88.9 nM. Further, the Stability entry in series [5] is recorded as “Stable”. Also, the Ratio in series [6] stood at 5450 M⁻¹ s⁻¹.

These data come from ChEMBL document CHEMBL5131566, “Small-Molecule Thioesters as SARS-CoV-2 Main Protease Inhibitors: Enzyme Inhibition, Structure-Activity Relationships, Antiviral Activity, and X-ray Structure Determination” (J Med Chem, 2022).
